In US12187739B2, “Diaryl macrocycle polymorph” (TURNING POINT THERAPEUTICS, INC., priority 2015, dated 2025):

Tests used:
[1] = tested on: KM 12 cells (harboring endogenous TPM3-TRKA fusion gene); test: cells; conditions: Homo sapiens, KM12, 72 h, read-out: KM 12 cell prolif. IC50 (nM)
Protocol: Colorectal cell lines KM 12 (harboring endogenous TPM3-TRKA fusion gene) cells were cultured in DMEM medium, supplemented with 10% fetal bovine serum and 100 U/mL of penicillin/streptomycin. 5000 cells were seeded in 384 well white plate for 24 hours before compounds treatment. Cell proliferation was measured using CellTiter-Glo luciferase-based ATP detection assay (Promega) following the manufactures's protocol after 72 hours incubation. IC50 determinations were performed using GraphPad Prism software (GraphPad, Inc., San Diego, CA).
5000 cells were seeded in 384 well white plate for 24 hours before compounds treatment. Cell proliferation was measured using CellTiter-Glo luciferase-based ATP detection assay (Promega) following the manufactures's protocol after 72 hours incubation. IC50 determinations were performed using GraphPad Prism software (GraphPad, Inc., San Diego, CA).

[2] = tested on: SET-2 cells (harboring endogenous JAK2 V618F point mutation); test: SET-2 cell proliferation assay (CellTiter-Glo); assay type: cell-based; conditions: Homo sapiens, SET-2 essential thrombocythemia cells, 72 hours incubation, read-out: SET2 cell proli. IC50
Protocol: Essential thrombocythemia cell line SET-2 cells (harboring endogenous JAK2 V618F point mutation) or T cell lymphoma Karpas-299 cell line (harboring endogenous NPM-ALK fusion gene) were cultured in RPMI medium, supplemented with 10% fetal bovine serum and 100 U/mL of penicillin/streptomycin. 5000 cells were seeded in 384 well white plate for 24 hours before compounds treatment. Cell proliferation was measured using CellTiter-Glo luciferase-based ATP detection assay (Promega) following the manufactures's protocol after 72 hours incubation. IC50 determinations were performed using GraphPad Prism software (GraphPad, Inc., San Diego, CA).

[3] = tested on: Ba/F3-EML4-ALK wild type cell line; test: EML4-ALK Ba/F3 stable cell line proliferation assay (CellTiter-Glo); assay type: cell-based; conditions: Ba/F3 cells with EML4-ALK wild-type (variant 1), 48 hours incubation; read-out: EML4-ALK Ba/F3 cell proli. IC50
Protocol: The EML4-ALK wild-type gene (variant 1) was synthesized at GenScript and cloned into pCDH-CMV-MCS-EF1-Puro plasmid (System Biosciences, Inc). Ba/F3-EML4-ALK wild type cell line was generated by infecting Ba/F3 cells with lentivirus containing EML4-ALK wide-type. Stable cell lines were selected by puromycin treatment, followed by IL-3 withdrawal. 5000 cells were seeded in 384 well white plate overnight before compound treatment.

In the case of `C[C@H]1CNC(=O)c2cnn3ccc(nc23)N[C@H](C)c2cc(F)ccc2O1` [Compound I, (7S,13R)-11-fluoro-7,13-dimethyl-6,7,13,14-tetrahydro-1,15-ethenopyrazolo[4,3-f][1,4,8,10]benzoxatriazacyclotridecin-4(5H)-one], the IC50 [1] is reported as 0.5 nM, the IC50 [2] is reported as 242 nM and the IC50 [3] is reported as 21.1 nM.
